Here are results for 24 compounds from patent US10377743B2, “Inhibitors of RAS and methods of use thereof” (Araxes Pharma LLC, priority 2016, dated 2019).

In the assay the target is T1, KRAS G12C 1-169, his-tagged protein, GDP-loaded (Homo sapiens, UniProt P01116, G12C).
T1 construct: KRAS G12C 1-169, his-tagged protein, GDP-loaded
The assay can be described thus: Biochemical assay: covalent binding (modification %) to KRAS G12C by mass spectrometry. Conditions: 2 hour incubation period. Here is the method: Test compounds were prepared as 10 mM stock solutions in DMSO (Fisher cat# BP-231-100). KRAS G12C 1-169, his-tagged protein, GDP-loaded was diluted to 2 μM or 0.5 μM in buffer (20 mM Hepes, 150 mM NaCl, 1 mM MgCl2). Compounds were tested for activity as follows:
Compounds were diluted to 50× final test concentration in DMSO in 96-well storage plates. Compound stock solutions were vortexed before use and observed carefully for any sign of precipitation. Dilutions were as follow: • For 100 μM final compound concentration, compounds were diluted to 5000 μM (5 μL 10 mM compound stock+5 μL DMSO and mixed well by pipetting. • For 30 μM final compound concentration, compounds were diluted to 1500 μM (3 μL 10 mM compound stock+17 μL DMSO) and mixed well by pipetting. • For 10 μM final compound concentration, compounds were diluted to 500 μM (2 μL 10 mM compound stock+38 μL DMSO) and mixed well by pipetting. 49 μL of the stock protein solution was added to each well of a 96-well PCR plate (Fisher cat#1423027). 1 μl of the diluted 50× compounds were added to appropriate wells in the PCR plate using 12-channel pipettor. Reactions were mixed carefully and thoroughly by pipetting up/down with a 200 μL multi-channel pipettor. The plate was sealed well with aluminum plate seal, and stored in drawer at room temperature for 10 minutes, 30 minutes, 2 hours or 24 hours. 5 μL of 2% formic acid (Fisher cat# A117) in de-ionized H2O was then added to each well followed by mixing with a pipette. The plate was then resealed with aluminum seal and stored on dry ice until analyzed as described below.
The above described assays were analyzed by mass spectrometry according to one of the following two procedures:
The MS instrument is set to positive polarity, 2 GHz resolution, and low mass (1700) mode and allowed to equilibrate for 30 minutes. The instrument is then calibrated, switched to acquisition mode and the appropriate method loaded.
After another 30 minute equilibration time, a blank batch (i.e., buffer) is run to ensure equipment is operating properly. The samples are thawed at 37° C. for 10 minutes, briefly centrifuged, and transfer to the bench top. Wells A1 and H12 are spiked with 1 μL 500 μM internal standard peptide, and the plates centrifuged at 2000×g for 5 minutes. The method is then run and masses of each individual well recorded.
The masses (for which integration data is desired) for each well are pasted into the platemap and exported from the analysis. Masses for the internal standards are exported as well. The data at 50 ppm is extracted for the +19 charge state, and identity of well A1 is assigned using the internal standard spike and integrated. Peak data is exported as a TOF list and the above steps are repeated individually, for the +20, 21, 22, 23, 24, and 25 charge states.
The masses and peak intensities of KRAS G12C protein species were measured using a Dionex RSLCnano system (Thermo Scientific) connected to a Q Exactive Plus mass spectrometer (Thermo Scientific).
[…] of sample was each loaded onto a Aeris™ 3.6 μm WIDEPORE C4 200 Å, LC Column 50×2.1 mm column maintained at 40° C. at a flow rate of 600 μL/min with 20% Solvent A (0.1% formic acid in H2O) and 80% Solvent B (0.1% formic acid in acetonitrile). The liquid chromatography conditions were 20% solvent B for 1 minute, 20% to 60% solvent B for 1.5 minutes, 60% to 90% solvent for 0.5 minute, 90% solvent B for 0.2 minute, 90% to 20% solvent B for 0.2 minute, and then equilibrated for 1.6 minute before the following sample injection. The flow rate was maintained at 600 μL/min throughout the sample analysis.
The mass spectrometer was operated in profile mode at a resolution of 17500, 5 microscans, using 50 msec max injection time and an AGC target of 1×10^6, and a full mass range from 800-1850 m/z was recorded. The HCD trapping gas was optimized for maximum sensitivity for intact proteins. […]

Setting [1] is: 8 μM compound (compounds 21-92).
The mark [2] stands for this setting: 10 μM compound (compounds 1-20).

As to `C=CC(=O)N1CC(N2Cc3c(O)cc(-c4cc(O)cc5ccccc45)cc3C2=O)C1` [Compound 43, 2-(1-acryloylazetidin-3-yl)-4-hydroxy-6-(3-hydroxynaphthalen-1-yl)isoindolin-1-one], under setting [1], the Binding % entry is recorded as “+++ (+++ indicates binding activity greater than 50%)”. Consider `C=CC(=O)N1CC(N2Cc3ccc(Oc4ccccc4)cc3C2=O)C1` [Compound 45, 2-(1-acryloylazetidin-3-yl)-6-phenoxyisoindolin-1-one], for which, under setting [1], the Binding % result is recorded as “+ (+ indicates binding activity up to 10%)”.

Turning to `C=CC(=O)N1CC(N2Cc3ccc(-c4cc(O)cc(Cl)c4)cc3C2=O)C1` [Compound 49, 2-(1-acryloylazetidin-3-yl)-6-(3-chloro-5-hydroxyphenyl)isoindolin-1-one], under setting [1], the Binding % entry is given as “++ (++ indicates binding activity from 10 to 50%)”. On to `C=CC(=O)N1CC(N2Cc3ccc(-c4c(C)ccc5[nH]nc(N)c45)cc3C2=O)C1` [Compound 65, 2-(1-acryloylazetidin-3-yl)-6-(3-amino-5-methyl-1H-indazol-4-yl)isoindolin-1-one], for which the Binding % entry under setting [1] is given as “+++ (+++ indicates binding activity greater than 50%)”. Turning to `C=CC(=O)N1CCC(N2Cc3ccc(-c4cc(O)cc5ccccc45)cc3C2=O)CC1` [Compound 7, 2-(1-acryloylpiperidin-4-yl)-6-(3-hydroxynaphthalen-1-yl)isoindolin-1-one], the Binding % result under setting [2] is “+ (+ indicates binding activity up to 10%)”. As for `C=CC(=O)N1CC(N2Cc3ccc(-c4c(C)ccc5[nH]ncc45)cc3CC2=O)C1` [Compound 38, 2-(1-acryloylazetidin-3-yl)-6-(5-methyl-1H-indazol-4-yl)-1,2-dihydroisoquinolin-3(4H)-one], the Binding % entry under setting [1] is “++ (++ indicates binding activity from 10 to 50%)”. On the same count and under the same terms, the result for `C=CC(=O)N1CC(N2Cc3ccc(C(=O)Nc4cn[nH]c4)cc3C2=O)C1` [Compound 84, 2-(1-acryloylazetidin-3-yl)-3-oxo-N-(1H-pyrazol-4-yl)isoindoline-5-carboxamide] reads “+ (+ indicates binding activity up to 10%)”; that for `C=CC(=O)N1CC(N2Cc3c(C(N)=O)cc(-c4c(O)cccc4F)cc3C2=O)C1` [Compound 83, 2-(1-acryloylazetidin-3-yl)-6-(2-fluoro-6-hydroxyphenyl)-1-oxoisoindoline-4-carboxamide], “+ (+ indicates binding activity up to 10%)”; that for `C=CC(=O)N1CC(N2Cc3c(cc(-c4cc(O)cc5ccccc45)cc3C(F)(F)F)C2=O)C1` [Compound 28, 2-(1-acryloylazetidin-3-yl)-6-(3-hydroxynaphthalen-1-yl)-4-(trifluoromethyl)isoindolin-1-one], “++ (++ indicates binding activity from 10 to 50%)”. On the same count and under the same terms, in the case of `C=CC(=O)N1CCC(N2Cc3c(C(N)=O)cc(-c4c(O)cccc4F)cc3C2=O)C1` (stereo not drawn) [Compound 91, 2-(1-acryloylpyrrolidin-3-yl)-6-(2-fluoro-6-hydroxyphenyl)-1-oxoisoindoline-4-carboxamide] it was “+ (+ indicates binding activity up to 10%)”. Turning to `C=CC(=O)N1CC(N2Cc3c(Cl)cc(-c4cc(O)ccc4Cl)cc3C2=O)C1` [Compound 13, 2-(1-acryloylazetidin-3-yl)-4-chloro-6-(2-chloro-5-hydroxyphenyl)isoindolin-1-one], under setting [2], the Binding % result was “++ (++ indicates binding activity from 10 to 50%)”. With `C=CC(=O)N1CC(N2Cc3c(C(N)=O)cc(-c4cc(O)cc5ccccc45)cc3C2=O)C1` [Compound 23, 2-(1-acryloylazetidin-3-yl)-6-(3-hydroxynaphthalen-1-yl)-1-oxoisoindoline-4-carboxamide], under setting [1], the Binding % entry is “+++ (+++ indicates binding activity greater than 50%)”. With `C=CC(=O)N1CC(N2Cc3ccc(Nc4ccccc4)cc3C2=O)C1` [Compound 20, 2-(1-acryloylazetidin-3-yl)-6-(phenylamino)isoindolin-1-one], the Binding % result under setting [2] is on record as “+ (+ indicates binding activity up to 10%)”.

Consider `C=CC(=O)N1CC(N2C(=O)c3ccc(-c4cc(O)cc5ccccc45)cc3C2=O)C1` [Compound 25, 2-(1-acryloylazetidin-3-yl)-5-(3-hydroxynaphthalen-1-yl)isoindoline-1,3-dione], for which the Binding % entry under setting [1] was “++ (++ indicates binding activity from 10 to 50%)”. In the case of `C=CC(=O)N1CC(N2Cc3c(cc(-c4cc(O)ccc4Cl)cc3C(F)(F)F)C2=O)C1` [Compound 17, 2-(1-acryloylazetidin-3-yl)-6-(2-chloro-5-hydroxyphenyl)-4-(trifluoromethyl)isoindolin-1-one], the Binding % result under setting [2] is recorded as “++ (++ indicates binding activity from 10 to 50%)”. Regarding `C=CC(=O)N1CC(N2Cc3cc(C)c(-c4cc(O)ccc4Cl)cc3C2=O)C1` [Compound 29, 2-(1-acryloylazetidin-3-yl)-6-(2-chloro-5-hydroxyphenyl)-5-methylisoindolin-1-one], under setting [1], the Binding % entry is “++ (++ indicates binding activity from 10 to 50%)”.

Consider `C=CC(=O)NCCN1Cc2ccc(-c3c(C)ccc4[nH]ncc34)cc2C1=O` [Compound 22, N-(2-(6-(5-methyl-1H-indazol-4-yl)-1-oxoisoindolin-2-yl)ethyl)acrylamide], for which the Binding % entry under setting [1] is reported as “+ (+ indicates binding activity up to 10%)”.

Regarding `C=CC(=O)N1CC(N2Cc3ccc(-c4ccccc4NC)cc3C2=O)C1` [Compound 60, 2-(1-acryloylazetidin-3-yl)-6-(2-(methylamino)phenyl)isoindolin-1-one], under setting [1], the Binding % entry was “+ (+ indicates binding activity up to 10%)”. For `C=CC(=O)N1CC(N2Cc3cc(F)c(-c4cc(O)cc5ccccc45)cc3C2=O)C1` [Compound 19, 2-(1-acryloylazetidin-3-yl)-5-fluoro-6-(3-hydroxynaphthalen-1-yl)isoindolin-1-one], the Binding % entry under setting [2] is given as “+++ (+++ indicates binding activity greater than 50%)”. For the compound `C=CC(=O)N1CC(N2Cc3cc(Cl)c(-c4cc(O)cc5ccccc45)cc3C2=O)C1` [Compound 70, 2-(1-acryloylazetidin-3-yl)-5-chloro-6-(3-hydroxynaphthalen-1-yl)isoindolin-1-one], under setting [1], the Binding % result is given as “+++ (+++ indicates binding activity greater than 50%)”. As for `C=CC(=O)N1CC(N2Cc3sc(-c4c(C)ccc5[nH]ncc45)cc3C2=O)C1` [Compound 42, 5-(1-acryloylazetidin-3-yl)-2-(5-methyl-1H-indazol-4-yl)-5,6-dihydro-4H-thieno[2,3-c]pyrrol-4-one], the Binding % result under setting [1] is recorded as “++ (++ indicates binding activity from 10 to 50%)”.

Consider `C=CC(=O)N1CC(N2Cc3ccc(C(=O)N4CCC(N(C)C)C4)cc3C2=O)C1` (stereo not drawn) [Compound 76, 2-(1-acryloylazetidin-3-yl)-6-(3-(dimethylamino)pyrrolidine-1-carbonyl)isoindolin-1-one], for which the Binding % entry under setting [1] is reported as “+ (+ indicates binding activity up to 10%)”. With `C=CC(=O)N1CC(N2Cc3ccc(-c4cc(O)ccc4C)cc3C2=O)C1` [Compound 11, 2-(1-acryloylazetidin-3-yl)-6-(5-hydroxy-2-methylphenyl)isoindolin-1-one], the Binding % result under setting [2] was “++ (++ indicates binding activity from 10 to 50%)”. For the compound `C=CC(=O)N1CC(N2Cc3ccc(-c4cc(O)cc5ccccc45)nc3C2=O)C1` [Compound 82, 6-(1-acryloylazetidin-3-yl)-2-(3-hydroxynaphthalen-1-yl)-5,6-dihydro-7H-pyrrolo[3,4-b]pyridin-7-one], the Binding % entry under setting [1] is given as “+ (+ indicates binding activity up to 10%)”.
